Values of other authors in paper PMC4010828 (mBio, 2014).

Test system: sensitive E. coli cells

Substance: microcin C (MRTGNAN; C-terminal adenylate, aminopropyl phosphoramidate) [McC]
- Concentration that inhibits the growth of sensitive E. coli cells: low micromolar concentrations
